In patent US8735414B2 (priority 2009, dated 2014):

System: bicistronic HCV replicon (replicon RNA, GenBank Accession No. AJ242654)
Assay: HCV Replicon Assay
Assay type: cell-based
Settings: Hepatitis C virus, 72 h, read-out: Replicon IC50

Q: For `[2H]C(C)(C)NS(=O)(=O)c1ccc(-c2c(C#N)c3cc(F)c(C([2H])([2H])[2H])cc3n2CC2CC2)nc1` [compound 1119, 6-[3-cyano-1-(cyclopropylmethyl)-5-fluoro-6-(1,1,1-trideuterium)methyl-1H-indol-2-yl]-N-[(2-deuterium)propan-2-yl]pyridine-3-sulfonamide], which IC50 is on record?
A: < 500 nM

Q: `COc1ccnc(-n2c(-c3ccc(S(=O)(=O)N[C@@H](C)C(F)(F)F)cn3)c(C#N)c3cc(F)c(C)cc32)n1` [compound 866, 6-[3-cyano-5-fluoro-1-(4-methoxypyrimidin-2-yl)-6-methyl-1H-indol-2-yl]-N-[(2S)-1,1,1-trifluoropropan-2-yl]pyridine-3-sulfonamide] was tested. Which IC50 did it give?
A: 500 to 2000 nM

Q: Which IC50 does the source give for `N#Cc1c(-c2ccc(S(=O)(=O)NC(CF)CF)cn2)n(CC2CC2)c2cc(CC(F)F)ccc12` [compound 616, 6-[3-cyano-1-(cyclopropylmethyl)-6-(2,2-difluoroethyl)-1H-indol-2-yl]-N-(1,3-difluoropropan-2-yl)pyridine-3-sulfonamide] here?
A: < 500 nM

Q: With `Cc1cc2c(cc1F)cc(-c1ccc(S(=O)(=O)N[C@@H](C)C(F)(F)F)cn1)n2-c1nncs1` [compound 958, 6-[5-fluoro-6-methyl-1-(1,3,4-thiadiazol-2-yl)-1H-indol-2-yl]-N-[(2S)-1,1,1-trifluoropropan-2-yl]pyridine-3-sulfonamide] as the molecule, how does the IC50 read?
A: 500 to 2000 nM

Q: `N#Cc1c(-c2ccc(S(=O)(=O)NC3(C(F)(F)F)CC3)cn2)n(C2CCC2)c2cc(O)c(F)cc12` [compound 813, 6-(3-cyano-1-cyclobutyl-5-fluoro-6-hydroxy-1H-indol-2-yl)-N-[1-(trifluoromethyl)cyclopropyl]pyridine-3-sulfonamide] was tested. Which IC50 did it give?
A: 500 to 2000 nM

Q: How did the IC50 turn out when `C[C@H](NS(=O)(=O)c1ccc(-c2c(C#N)c3cc(F)c(CCO)cc3n2-c2ncccn2)nc1)C(F)(F)F` [compound 970, 6-[3-cyano-5-fluoro-6-(2-hydroxyethyl)-1-(pyrimidin-2-yl)-1H-indol-2-yl]-N-[(2S)-1,1,1-trifluoropropan-2-yl]pyridine-3-sulfonamide] was run?
A: < 500 nM

Q: How did the IC50 turn out when `CCc1cc2c(cc1F)c(C(N)=O)c(-c1ccc(S(=O)(=O)N[C@@H](C)C(F)(F)F)cn1)n2-c1cccc(C(F)(F)F)c1` [compound 1026, 6-ethyl-5-fluoro-1-[3-(trifluoromethyl)phenyl]-2-(5-{[(2S)-1,1,1-trifluoropropan-2-yl]sulfamoyl}pyridin-2-yl)-1H-indole-3-carboxamide] was run?
A: 500 to 2000 nM

Q: `[2H][C@@](C)(NS(=O)(=O)c1ccc(-c2c(C#N)c3cc(F)c(C)cc3n2C2CCC2)nc1)C(F)(F)F` [compound 1113, 6-(3-cyano-1-cyclobutyl-5-fluoro-6-methyl-1H-indol-2-yl)-N-[(2S)-1,1,1-trifluoro(2-deuterium)propan-2-yl]pyridine-3-sulfonamide] was tested. Which IC50 did it give?
A: < 500 nM

Q: `CCc1cc2c(cc1F)c(C#N)c(-c1ccc(S(=O)(=O)NC(C)(C)C(F)(F)F)cn1)n2-c1ncccn1` [compound 859, 6-[3-cyano-6-ethyl-5-fluoro-1-(pyrimidin-2-yl)-1H-indol-2-yl]-N-(1,1,1-trifluoro-2-methylpropan-2-yl)pyridine-3-sulfonamide] was tested. Which IC50 did it give?
A: 500 to 2000 nM

Q: `COC(=O)c1c(-c2ncc(S(=O)(=O)N[C@@H](C)C(F)(F)F)cn2)n(C2CCC2)c2cc(C)c(F)cc12` [compound 774, methyl 1-cyclobutyl-5-fluoro-6-methyl-2-(5-{[(2S)-1,1,1-trifluoropropan-2-yl]sulfamoyl}pyrimidin-2-yl)-1H-indole-3-carboxylate] was tested. Which IC50 did it give?
A: < 500 nM

Q: How did the IC50 turn out when `C[C@H](NS(=O)(=O)c1ccc(-c2c(C#N)c3ccc(CC(F)F)cc3n2CC2CC2)nc1)C1CC1` [compound 617, 6-[3-cyano-1-(cyclopropylmethyl)-6-(2,2-difluoroethyl)-1H-indol-2-yl]-N-[(1S)-1-cyclopropylethyl]pyridine-3-sulfonamide] was run?
A: < 500 nM

Q: With `Cc1c(F)cc2c(C#N)c(-c3ncc(S(=O)(=O)NC(CF)CF)cn3)n(C3CCC3)c2c1F` [compound 668, 2-(3-cyano-1-cyclobutyl-5,7-difluoro-6-methyl-1H-indol-2-yl)-N-(1,3-difluoropropan-2-yl)pyrimidine-5-sulfonamide] as the molecule, how does the IC50 read?
A: < 500 nM

Q: Which IC50 does the source give for `C[C@H](NS(=O)(=O)c1ccc(-c2c(C#N)c3ccc(CC(F)F)cc3n2CC2CC2)nc1)C(F)(F)F` [compound 618, 6-[3-cyano-1-(cyclopropylmethyl)-6-(2,2-difluoroethyl)-1H-indol-2-yl]-N-[(2S)-1,1,1-trifluoropropan-2-yl]pyridine-3-sulfonamide] here?
A: < 500 nM

Q: For `Cc1cc2c(cc1F)c(Cl)c(-c1ccc(S(=O)(=O)N[C@@H](C)C(F)(F)F)cn1)n2-c1nncs1` [compound 972, 6-[3-chloro-5-fluoro-6-methyl-1-(1,3,4-thiadiazol-2-yl)-1H-indol-2-yl]-N-[(2S)-1,1,1-trifluoropropan-2-yl]pyridine-3-sulfonamide], which IC50 is on record?
A: 2000 to 5000 nM

Q: With `CCc1cc2c(cc1F)c(C(N)=O)c(-c1ccc(S(=O)(=O)NC(C)(C)C)cn1)n2-c1ccccn1` [compound 883, 2-(5-(N-tert-butylsulfamoyl)pyridin-2-yl)-6-ethyl-5-fluoro-1-(pyridin-2-yl)-1H-indole-3-carboxamide] as the molecule, how does the IC50 read?
A: < 500 nM

Q: How did the IC50 turn out when `C[C@H](NS(=O)(=O)c1ccc(-c2c(C#N)c3ccc(Cl)cc3n2C2CCCC2)nc1)C1CC1` [compound 155, 6-(6-chloro-3-cyano-1-cyclopentyl-1H-indol-2-yl)-N-[(1S)-1-cyclopropylethyl]pyridine-3-sulfonamide] was run?
A: < 500 nM

Q: With `CCc1cc2c(cc1F)c(C(N)=O)c(-c1ccc(S(=O)(=O)N[C@@H](C)C(F)(F)F)cn1)n2-c1ccccn1` [compound 909, 6-ethyl-5-fluoro-1-(pyridin-2-yl)-2-(5-{[(2S)-1,1,1-trifluoropropan-2-yl]sulfamoyl}pyridin-2-yl)-1H-indole-3-carboxamide] as the molecule, how does the IC50 read?
A: 500 to 2000 nM

Q: For `N#Cc1c(-c2ccc(S(=O)(=O)NC(CF)CF)cn2)n(C2CCC2)c2ccc(C(F)F)cc12` [compound 378, 6-[3-cyano-1-cyclobutyl-5-(difluoromethyl)-1H-indol-2-yl]-N-(1,3-difluoropropan-2-yl)pyridine-3-sulfonamide], which IC50 is on record?
A: < 500 nM

Q: Which IC50 does the source give for `C=Cc1cc2c(cc1F)c(C#N)c(-c1ccc(S(=O)(=O)N[C@@H](C)C(F)(F)F)cn1)n2-c1ncccn1` [compound 908, 6-[3-cyano-6-ethenyl-5-fluoro-1-(pyrimidin-2-yl)-1H-indol-2-yl]-N-[(2S)-1,1,1-trifluoropropan-2-yl]pyridine-3-sulfonamide] here?
A: < 500 nM

Q: Which IC50 does the source give for `N#Cc1c(-c2ncc(S(=O)(=O)NC(CF)CF)cn2)n(C2CCCC2)c2ccc(Cl)cc12` [compound 188, 2-(5-chloro-3-cyano-1-cyclopentyl-1H-indol-2-yl)-N-(1,3-difluoropropan-2-yl)pyrimidine-5-sulfonamide] here?
A: < 500 nM

Q: For `CCC(NS(=O)(=O)c1ccc(-c2c(C#N)c3cc(F)c(OC(F)F)cc3n2C2CCC2)nc1)C(F)(F)F` (stereo not shown) [compound 790, 6-[3-cyano-1-cyclobutyl-6-(difluoromethoxy)-5-fluoro-1H-indol-2-yl]-N-(1,1,1-trifluorobutan-2-yl)pyridine-3-sulfonamide], which IC50 is on record?
A: < 500 nM

Q: For `C[C@H](NS(=O)(=O)c1ccc(-c2c(C#N)c3cc(F)c(CC(F)F)cc3n2C2CCC2)nc1)C(F)(F)F` [compound 697, 6-[3-cyano-1-cyclobutyl-6-(2,2-difluoroethyl)-5-fluoro-1H-indol-2-yl]-N-[(2S)-1,1,1-trifluoropropan-2-yl]pyridine-3-sulfonamide], which IC50 is on record?
A: < 500 nM
